Test results as given in PMC9604400, “Synthesis, Anticancer and Antitubercular Properties of New Chalcones and Their Nitrogen-Containing Five-Membered Heterocyclic Hybrids Bearing Sulfonamide Moiety” (International Journal of Molecular Sciences, 2022).

Legend:
HCT-116 = assay: NCI-60 screen (SRB), colon cancer; conditions: Homo sapiens; for IC50: HCT-116; for CC50: HCT-116, read-out: LC50
OVCAR-8 = assay: NCI-60 screen (SRB), ovarian cancer; conditions: Homo sapiens; for IC50: OVCAR-8; for CC50: OVCAR-8, read-out: LC50
MOLT-4 = assay: NCI-60 screen (SRB), leukemia; conditions: Homo sapiens; for IC50: MOLT-4; for CC50: MOLT-4, read-out: LC50
MALME-3M = assay: NCI-60 screen (SRB), melanoma; conditions: Homo sapiens; for CC50: read-out: LC50
NCI/ADR-RES = assay: NCI-60 screen (SRB), ovarian cancer; conditions: Homo sapiens; for CC50: read-out: LC50
MDA-MB-231/ATCC = assay: NCI-60 screen (SRB), breast cancer; conditions: Homo sapiens; for IC50: MDA-MB-231; for CC50: MDA-MB-231, read-out: LC50
DU-145 = assay: NCI-60 screen (SRB), prostate cancer; conditions: Homo sapiens; for IC50: DU-145; for CC50: DU-145, read-out: LC50
SK-MEL-28 = assay: NCI-60 screen (SRB), melanoma; conditions: Homo sapiens; for IC50: SK-MEL-28; for CC50: SK-MEL-28, read-out: LC50
K-562 = assay: NCI-60 screen (SRB), leukemia; conditions: Homo sapiens; for IC50: K562; for CC50: K562, read-out: LC50
HT29 = assay: NCI-60 screen (SRB), colon cancer; conditions: Homo sapiens; for IC50: HT-29; for CC50: HT-29, read-out: LC50
PC-3 = assay: NCI-60 screen (SRB), prostate cancer; conditions: Homo sapiens; for IC50: PC-3; for CC50: PC-3, read-out: LC50
HOP-62 = assay: NCI-60 screen (SRB), non-small cell lung cancer; conditions: Homo sapiens; for IC50: HOP-62; for CC50: HOP-62, read-out: LC50
CAKI-1 = assay: NCI-60 screen (SRB), renal cancer; conditions: Homo sapiens; for IC50: CAKI-1; for CC50: CAKI-1, read-out: LC50
[1] = test system: 60 human cancer cell lines; assay: NCI-60 screen (SRB), whole panel; format: cell-based; conditions: Homo sapiens; for IC50: five-dose screen, read-out: IC50 values against most cell lines (range); for inhibition at 10 µM: single dose 10 μM, mean over 60 cell lines, over 100% = cell death, read-out: Mean growth inhibition (GI) percentage
UO-31 = assay: NCI-60 screen (SRB), renal cancer; conditions: Homo sapiens; for IC50: UO-31; for CC50: UO-31, read-out: LC50
OVCAR-5 = assay: NCI-60 screen (SRB), ovarian cancer; conditions: Homo sapiens; for IC50: OVCAR-5; for CC50: OVCAR-5, read-out: LC50
A549/ATCC = assay: NCI-60 screen (SRB), non-small cell lung cancer; conditions: Homo sapiens; for IC50: A549; for CC50: A549, read-out: LC50
EKVX = assay: NCI-60 screen (SRB), non-small cell lung cancer; conditions: Homo sapiens; for CC50: read-out: LC50
HOP-92 = assay: NCI-60 screen (SRB), non-small cell lung cancer; conditions: Homo sapiens; for IC50: HOP-92; for CC50: HOP-92, read-out: LC50
A498 = assay: NCI-60 screen (SRB), renal cancer; conditions: Homo sapiens; for IC50: A498; for CC50: A498, read-out: LC50
OVCAR-3 = assay: NCI-60 screen (SRB), ovarian cancer; conditions: Homo sapiens; for IC50: OVCAR-3; for CC50: OVCAR-3, read-out: LC50
UACC-62 = assay: NCI-60 screen (SRB), melanoma; conditions: Homo sapiens; for IC50: UACC-62; for CC50: UACC-62, read-out: LC50
SNB-75 = assay: NCI-60 screen (SRB), CNS cancer; conditions: Homo sapiens; for IC50: SNB-75; for CC50: SNB-75, read-out: LC50
SK-MEL-2 = assay: NCI-60 screen (SRB), melanoma; conditions: Homo sapiens; for IC50: SK-MEL-2; for CC50: SK-MEL-2, read-out: LC50
leukemia cell lines = assay: NCI-60 screen (SRB), leukemia panel; format: cell-based; conditions: Homo sapiens; leukemia panel, single dose 10 μM; read-out: GI (growth inhibition), range over panel
RXF 393 = assay: NCI-60 screen (SRB), renal cancer; conditions: for IC50 / CC50: Homo sapiens; for IC50: RXF 393; for CC50: RXF 393, read-out: LC50; for lethality: RXF 393, single dose 10 μM
NCI-H226 = assay: NCI-60 screen (SRB), non-small cell lung cancer; conditions: Homo sapiens; for IC50: NCI-H226; for CC50: NCI-H226, read-out: LC50
HL-60(TB) = assay: cells; conditions: Homo sapiens; for IC50: HL-60; for CC50: HL-60, read-out: LC50
MDA-MB-468 = assay: NCI-60 screen (SRB), breast cancer; conditions: for IC50 / CC50: Homo sapiens; for IC50: MDA-MB-468; for CC50: MDA-MB-468, read-out: LC50; for lethality: MDA-MB-468, single dose 10 μM
colon cancer cell lines = assay: NCI-60 screen (SRB), colon cancer panel; format: cell-based; conditions: Homo sapiens, single dose 10 μM, read-out: GI (growth inhibition), range over panel
OVCAR-4 = assay: NCI-60 screen (SRB), ovarian cancer; conditions: Homo sapiens; for IC50: OVCAR-4; for CC50: OVCAR-4, read-out: LC50
SF-268 = assay: NCI-60 screen (SRB), CNS cancer; conditions: Homo sapiens; for IC50: SF-268; for CC50: SF-268, read-out: LC50
LOX IMVI = assay: NCI-60 screen (SRB), melanoma; conditions: Homo sapiens; for CC50: read-out: LC50

## COc1cc(OC)c(S(N)(=O)=O)cc1C(=O)C=Cc1ccccc1 [Compound 17a, 5-Cinnamoyl-2,4-dimethoxybenzenesulfonamide]
HCT-116
  IC50: 1.49 µM
  CC50: 67.2 µM
OVCAR-8
  IC50: 11.3 µM
  CC50: 51.3 µM
MOLT-4
  IC50: 10.1 µM
  CC50: > 100 µM
MALME-3M
  IC50: 13.9 µM
  CC50: 61.9 µM
NCI/ADR-RES
  IC50: 15.5 µM
  CC50: > 100 µM
MDA-MB-231/ATCC
  IC50: 11.9 µM
  CC50: 61.6 µM
DU-145
  IC50: 1.88 µM
  CC50: 38.1 µM
SK-MEL-28
  IC50: 12.5 µM
  CC50: 51 µM
K-562
  IC50: 1.5 µM
  CC50: > 100 µM
HT29
  IC50: 4.02 µM
  CC50: 42.5 µM
PC-3
  IC50: 5.95 µM
  CC50: 50.4 µM
HOP-62
  IC50: 9.51 µM
  CC50: 51.9 µM
CAKI-1
  IC50: 1.86 µM
  CC50: 39.5 µM
[1]
  IC50: 0.34 to 17.6 µM
  inhibition at 10 µM: 71.8%
UO-31
  IC50: 4.76 µM
  CC50: 43.5 µM
OVCAR-5
  IC50: 13.2 µM
  CC50: 53.7 µM
A549/ATCC
  IC50: 10.5 µM
  CC50: 49 µM
EKVX
  IC50: 14.2 µM
  CC50: 53.6 µM
HOP-92
  IC50: 2.06 µM
  CC50: 37.1 µM
A498
  IC50: 16.9 µM
  CC50: 55.8 µM
OVCAR-3
  IC50: 2.71 µM
  CC50: 38.3 µM
UACC-62
  IC50: 12.2 µM
  CC50: 59.4 µM
SNB-75
  IC50: 2.08 µM
  CC50: 26.9 µM
SK-MEL-2
  IC50: 12.6 µM
  CC50: 55.9 µM
Leukemia cell lines
  inhibition at 10 µM: 70.8 to 94.8%
RXF 393
  IC50: 1.9 µM
  CC50: 30 µM
  lethality: 29.73%
NCI-H226
  IC50: 10 µM
  CC50: 69.2 µM
HL-60(TB)
  IC50: 2.27 µM
  CC50: > 100 µM
MDA-MB-468
  IC50: 1.2 µM
  CC50: 43.9 µM
  lethality: 43.37%
Colon cancer cell lines
  inhibition at 10 µM: 72.5 to 96.2%
OVCAR-4
  IC50: 11.8 µM
  CC50: 55.9 µM
SF-268
  IC50: 5.88 µM
  CC50: 62.7 µM
LOX IMVI
  IC50: 0.34 µM
  CC50: 41.4 µM

## COc1cc(OC)c(S(N)(=O)=O)cc1C(=O)/C=C/c1ccc(C)cc1 [Compound 17c, (E)-2,4-Dimethoxy-5-(3-(p-tolyl)acryloyl)benzenesulfonamide]
HCT-116
  IC50: 30.6 µM
  CC50: 58 µM
OVCAR-8
  IC50: 2.17 µM
  CC50: 15.8 µM
MOLT-4
  IC50: 3.07 µM
  CC50: > 100 µM
MALME-3M
  IC50: 8.55 µM
  CC50: 59.5 µM
NCI/ADR-RES
  IC50: 5.25 µM
  CC50: > 100 µM
MDA-MB-231/ATCC
  IC50: 3.41 µM
  CC50: 60 µM
DU-145
  IC50: 4.23 µM
  CC50: 65.1 µM
SK-MEL-28
  IC50: 4.09 µM
  CC50: 40.8 µM
K-562
  IC50: 2.43 µM
  CC50: > 100 µM
HT29
  IC50: 3.5 µM
  CC50: 64.7 µM
PC-3
  IC50: 3.42 µM
  CC50: 55.1 µM
HOP-62
  IC50: 2.9 µM
  CC50: 29.5 µM
CAKI-1
  IC50: 2.42 µM
  CC50: 35.2 µM
[1]
  IC50: 0.54 to 11.5 µM
  inhibition at 10 µM: 81.2%
UO-31
  IC50: 3.46 µM
  CC50: 38.1 µM
OVCAR-5
  IC50: 2.57 µM
  CC50: 27.2 µM
A549/ATCC
  IC50: 2.75 µM
  CC50: 34.8 µM
EKVX
  IC50: 4.33 µM
  CC50: 43.3 µM
HOP-92
  IC50: 2.3 µM
  CC50: 35.4 µM
A498
  IC50: 16.2 µM
  CC50: 58.1 µM
OVCAR-3
  IC50: 3.05 µM
  CC50: > 100 µM
UACC-62
  IC50: 3.63 µM
  CC50: 46.2 µM
SNB-75
  IC50: 1.84 µM
  CC50: 18.2 µM
SK-MEL-2
  IC50: 11.5 µM
  CC50: 55.7 µM
Leukemia cell lines
  inhibition at 10 µM: 78.9 to 94.3%
RXF 393
  IC50: 2.24 µM
  CC50: 28.8 µM
  lethality: 28.21%
NCI-H226
  IC50: 4.14 µM
  CC50: 90.8 µM
HL-60(TB)
  IC50: 2.52 µM
  CC50: > 100 µM
MDA-MB-468
  IC50: 1.96 µM
  CC50: 54.3 µM
  lethality: 36.18%
Colon cancer cell lines
  inhibition at 10 µM: 83 to 100%
OVCAR-4
  IC50: 3.66 µM
  CC50: 53.2 µM
SF-268
  IC50: 3.2 µM
  CC50: > 100 µM
LOX IMVI
  IC50: 0.54 µM
  CC50: 76.2 µM
